Source: patent publication US7976841B2, “Anti TfR antibody” (Institut National de la Sante et de la Recherche, priority 2004, dated 2011)

Tests used:
EBV+ and EBV− MCL lines = test: MCL cell proliferation, radioactive thymidine incorporation; type: cell-based, human; conditions: 72 hours, […] to 20 μg/ml
From the text: The cellular proliferation is expressed as a percent of the proliferation of untreated control cells. The results are shown on FIG. 10.

CD20 = target: T1, CD20 (Homo sapiens, UniProt P11836); test: CD20 expression at the surface of MCL cell lines, flow cytometry; type: cell-based; conditions: Rituximab 10 μg/ml, 30 minutes to 72 hours
T1 construct: target receptors TfR and CD20 at the surface of a MCL cell line EBV+ and a MCL cell line EBV^−; endogenous in cells; host or cells: MCL-derived B-cell lines (EBV+ and EBV-)
T1 sequence (P11836 1-297): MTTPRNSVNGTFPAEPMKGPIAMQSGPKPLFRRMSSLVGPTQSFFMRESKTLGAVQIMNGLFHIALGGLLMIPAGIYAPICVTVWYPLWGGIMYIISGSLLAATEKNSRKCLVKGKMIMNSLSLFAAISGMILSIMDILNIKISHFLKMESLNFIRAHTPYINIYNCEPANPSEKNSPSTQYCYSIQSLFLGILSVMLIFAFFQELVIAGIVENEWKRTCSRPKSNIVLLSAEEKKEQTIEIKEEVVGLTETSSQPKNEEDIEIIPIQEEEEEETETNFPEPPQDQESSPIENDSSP
From the text: In a first time, we checked by flow cytometry the rate of expression of TfR and CD20 on […] B-cells lines (EBV+ and EBV^−) derived from MCL5. using an anti-CD71-PE antibody (Beckman-Coulter) and an anti-CD20-PE antibody (Becton Dickinson). The results are shown on FIGS. 8 A and B. The gray histograms respectively represent the rate of expression of the CD71 (A) and of the CD20 (B) at the surface of MCL cells EBV+ (a,b,c,e,f,g) or EBV^− (d). This rate is specified on each histogram after substraction of the background noise of the staining.
The results are shown on FIGS. 9A (A24) and 9B (Rituximab).

[1] = test system: tumor cells derived from ATL acute patients; test: Apoptosis assay (annexin V-FITC/PI, DIOC), acute ATL cells; type: cell-based, human
Procedure: Two million of PBMC from HTLV-1 patients were treated for 96 h with IL-2 and PHA in the presence or absence of A24 (10 μg/ml), 30.9 (10 μg/ml) or of the apoptosis-inducing agent VP16 (100 ng/ml). Cells were then washed with ice-cold PBS and incubated with a combination of annexin V-FITC and propidium iodide (PI) (Beckman-Coulter, Marseilles, France), according to the manufacturer recommendations. Alternatively, the apoptosis was evaluated through mitochondrial membrane depolarization with the DIOC staining (Molecular Probes) as described earlier (ZERMATI et al., J Exp Med., 193, 247-254, 2001).
Fe deprivation induces a variety of consequences, such as the reduction of cell proliferation and the activation of programmed cell death (HAQ et al., Exp Hematol., 23, 428-432, 1995), a phenomenon associated with phosphatidylserine exposure and mitochondrial membrane depolarization. […] The results are shown of FIGS. 7 A and 7B.
Comparative effect of A24, 30.9 and VP 16 on the induction of programmed cell death in selected cells. Cells were activated or not with PHA and IL-2 and incubated in the presence of 30.9, A24 and VP16. Apoptotic and necrotic cells were followed by flow cytometry using an annexin-V-FITC/PI kit. […] Data represents one out of three different experiments.

[2] = test system: resting T cells co-cultured with dendritic cells; test: Allogeneic Mixed Leukocyte Reaction (MLR), DC-induced T cell proliferation; type: cell-based, human; conditions: 6 days of culture
From the text: Peripheral blood mononuclear cells (PBMC) were isolated as described earlier by the standard Ficoll-Paque method (Amersham Life Science, Buckinghamshire, U.K.) (BAZARBACHI et al, Blood., 93, 278-283, 1999). The healthy volunteers and the 4 acute and 3 chronic ATL patients (classified following Shirono criteria) (SHIRONO et al., Leukemia., 8, 1834-1837, 1994) had all given their informed consent. ATL tumor cells represented between 60-90% of the T cell population. Each cell type was freshly cultured in conditioned RPMI-1640 medium supplemented with 10% of fetal calf serum (FCS, Gibco BRL) and a mixture of interleukin-2 (20 U/ml IL-2) and phytohemagglutinin (4 μg/ml PHA). Mixed leukocyte reaction (MLR) was performed as described earlier (TORDJMAN et al., Nat Immunol., 3, 477-482, 2002). CIB tropical spastic paraparesis (HAM/TSP) cell line was cultured in RPMI-1640 medium supplemented with 10% of FCS.
To test if A24 could also block physiologically activated T cell proliferation, we examined the effect of A24 in allogeneic Mixed Leukocyte Reaction (MLR). DC-induced allogenic T cell proliferation was evaluated after 6 days of culture in the presence of A24, control antibody (30.9) or arsenic trioxide (Ars). The results are shown in FIG. 1 B. Data represents means SD of one out of three separate experiments. […]

[3] = test system: HTLV-1 infected T cell clones; test: Emergence of HTLV-1 infected T cell clones, 2-week culture; type: cell-based, human; conditions: chronic ATL PBMC, single dose on first day, 2 weeks
Procedure: HTLV-1 infected cells can proliferate in vitro, but the clones that proliferate in culture are generally not the same as those that proliferate in the patient. To verify if A24 could inhibit the emergence of HTLV-1 infected T cell clones, we cultured cells freshly isolated from patients and from healthy individuals in the presence or absence of A24. PBMC from HTLV-1 infected patients with a chronic ATL form were plated in culture wells with the 30.9, A24 or Ars for 2 weeks. Emergence of HTLV-1 clones was evaluated by [3H] thymidine incorporation. After 2 weeks of culture, the appearance of proliferating cells was assessed by [3H] thymidine incorporation.

[4] = test system: PBMC from HTLV-I infected patients with acute or chronic ATL; test: Proliferation of PBMC from ATL patients, PHA/IL-2, [3H] thymidine incorporation; type: cell-based, human; conditions: PHA/IL-2, 72 h
Procedure: (§1) PBMC were resuspended in RPMI-1640 with 10% FCS, and added in triplicates at the concentration of 10^5 cells/well in 96-well tissue culture plates (Falcon, Oxnard, Calif.). Proliferation was measured over 18 h, using pulses with 1 μCi/well of [^3H]-thymidine (Amersham Life Science, Buckinghamshire, U.K.). Cells were then harvested with a 96-well Harvester (Pharmacia, St. Quentin, France), collected on filters (Pharmacia) and the incorporation of [^3H] thymidine was measured with β-plate microscintillation counter (LKB, Pharmacia).
PBMC from healthy individuals (a) and HTLV-I infected patients with an acute ATL (b) or a chronic ATL (c) were plated in culture wells with A24 or a control antibody (30.9) in the presence of PHA/IL-2, for 72 h before [3H] thymidine incorporation. The results are shown on FIG. 2C.
(§2) TfR expression is essential for the proliferation of both normal and malignant T cells. While TfR expression in normal T cells is tightly coupled to interleukin-2 receptor expression, TfR expression in malignant cells is usually constitutive. It was previously shown that the anti-IL-2Rα can efficiently block the ex vivo proliferation of cells derived from chronic ATL patients. […] Proliferation of these cells was then measured by [^3H] thymidine incorporation. […]

[5] = test system: peripheral blood leukocytes (PBMC); test: Proliferation of PHA/IL-2-activated PBMC from healthy individuals, [3H]-thymidine incorporation; type: cell-based, human; conditions: PHA/IL-2, 72 h
Procedure: as §1
To investigate the activity of A24 on peripheral blood leukocytes (PBMC) proliferation, cells were activated with PHA/IL-2 and incubated with different concentrations of A24 (0 to 50 μg/ml) or control antibody (30.9) (0 to 50 μg/ml) for 72 h before [^3H]-thymidine incorporation.
as §2

Rituximab: anti-CD20 antibody manufactured by Genentech
inhibition of MCL proliferation (EBV+ and EBV− MCL lines): ≤ 20% | expression of the CD20 (CD20): does not induce notable reduction

COc1cc([C@@H]2c3cc4c(cc3[C@@H](O[C@@H]3O[C@@H]5CO[C@@H](C)O[C@H]5[C@H](O)[C@H]3O)[C@H]3COC(=O)[C@H]23)OCO4)cc(OC)c1O [VP 16]
annexin-V staining ([1]; A24 10 μg/ml, VP16 100 ng/ml, 96 h): a large population that stained brightly with annexin-V appeared | DIOC staining (mitochondrial depolarization) ([1]; activated leukocytes from ATL acute patient): drastic reduction

arsenic trioxide
effect on T cell proliferation [2]: block T cell proliferation | effect on proliferation of HTLV-1 infected T cell clones [3]: more efficient than A24

B1: anti-IL-2Rα: anti-IL-2Rα monoclonal antibody (Zenapax from Hoffmann-La Roche) (antibody, chains of the INN, looked up, V domains shown)
VH: QVQLVQSGAEVKKPGSSVKVSCKASGYTFTSYRMHWVRQAPGQGLEWIGYINPSTGYTEYNQKFKDKATITADESTNTAYMELSSLRSEDTAVYYCARGGGVFDYWGQGTLVTVSS
VL: DIQMTQSPSTLSASVGDRVTITCSASSSISYMHWYQQKPGKAPKLLIYTTSNLASGVPARFSGSGSGTEFTLTISSLQPDDFATYYCHQRSTYPLTFGQGTKVEVK
effect on cell proliferation, acute ATL ([4]; acute ATL): did not block | effect on cell proliferation, chronic ATL ([4]; chronic ATL): significantly inhibited | effect on PHA/IL-2-induced cell proliferation [5]: significantly inhibited
